Data from article PMC12281475, “Mediator Kinase Inhibitor Selectivity and Activity in Colorectal Cancer” (ACS Chemical Biology, 2025).

Test system: COLO205 cells
Experiment: Phospho-proteome profiling (CDK-motif antibody enrichment, LC-MS/MS)
Assay type: cell-based, human
Conditions: 6 H
Source text: We phospho-proteome profiled COLO205 cells to identify Mediator kinase substrates following chemical inhibition of Mediator kinase activity. Given the confirmed CDK8/19 selectivity of our compounds in binding and enzymatic activity assays, we employed a pool of antibodies selective for the proline-rich motifs phosphorylated by the CDK family to enrich potential CDK8/19 substrates for LC-MS/MS analysis.
Adherent COLO205 cells were lysed with a urea buffer, lysates were reduced with DTT, alkylated with iodoacetimide and digested with trypsin-tosylphenylalanyl chloromethyl ketone. Digested peptides were immunoprecipitated using a pool of motif antibodies from Cell Signaling Technologies (US) comprising: phospho-MAPK substrate (PXS*P or S*PXR/K, #2325, RRID:AB_331820), phospho-CDKs substrate ((K/H)-S*P, #2324; RRID:AB_2244779), phospho-PLK binding motif (ST*P, #5243; RRID:AB_10891778) and phospho-tPE motif (T*PE, #3004; RRID:AB_10890649)-of phospho-MAPK (2325), phospho-CDK (2324), phospho-PLK (5243) and phospho-tPE (C3004) motif-recognizing antibodies immobilized onto protein A/G beads. Immunoprecipitated peptides were analyzed using an LTQ-Orbitrap-Velos. Sequences were assigned to the MS/MS spectra and evaluated using SEQUEST 3G and SORCERER 2 (Sage-N Research v4.0, Milpitas). Quantitative data was evaluated and clustered in Spotfire Decision Site (www.spotfire.tibco.com) and normalized using quartile normalization. Functional annotation and pathway analysis used DAVID (https://david.ncifcrf.gov/). […]
Phospho-proteome analyses
Adherent COLO205 cells were washed with PBS and cells lysed using urea lysis buffer (9 M Urea, 20 mM HEPES, pH 8.0, 1 mM beta-glycerophosphate, 1 mM sodium vanadate, 2.5 mM sodium pyrophosphate) and stored at -80 °C prior to analysis. The supernatants were reduced with 100 mM DTT for 30 minutes at 55 °C, followed by alkylation with 50 mM iodoacetimide for 15 minutes at ambient temperature in the dark.
The samples were diluted in 20 mM HEPES, pH 8.0 and digested overnight with 10 ug/mL trypsin-tosylphenylalanyl chloromethyl ketone in 1 mM HCl. Digested peptides were acidified with 1% formic acid and then desalted over 360-mg SEP PAK C18 columns (Waters, UK). Peptides were eluted with 40% acetonitrile in 0.125% formic acid, dried under a vacuum and the lyophilised peptides used for immunoprecipitation.
A pool of motif antibodies from Cell Signaling Technologies (US) comprising: phospho-MAPK substrate (PXS*P or S*PXR/K, #2325, RRID:AB_331820), phospho-CDKs substrate ((K/H)S*P, #2324; RRID:AB_2244779), phospho-PLK binding motif (ST*P, […]
RRID:AB_10890649), were immobilised onto protein A/G beads overnight at 4 °C. The lyophilised peptides were resuspended in MOPS buffer (50 mM MOPS, pH 7.2, 10 mM KH2PO4, 50 mM NaCl) and centrifuged for 5 mins at 13,500 rpm in an Eppendorf benchtop microcentrifuge. The supernatants were incubated with the motif-bound beads for 2.5 hours at 4 °C . The beads were harvested by centrifugation at 4000 rpm in an Eppendorf benchtop microcentrifuge for 5 mins, washed with MOPS buffer twice and washed again 5 times with deionised water. The peptides were eluted off the beads using 0.125% formic acid, were desalted and dried under a vacuum. The lyophilised immunoprecipitated peptides were resuspended in 0.125% formic acid and separated on a capillary column packed with Magic C18 AQ reversed-phase resin.
Peptides were eluted using a 72-minute linear gradient of acetonitrile in 0.125% formic acid delivered at 280nL/min. Samples were analysed using an LTQ-Orbitrap-Velos.
MS Parameter Settings were: MS Run Time 96 min, MS1 Scan Range (300.0 – 1500.00), Top 20 MS/MS (Min Signal 500, Isolation Width 2.0, Normalized Coll.
Charge State Rejection Enabled, Charge State 1+ Rejected, Dynamic Exclusion Enabled, Repeat Count 1, Repeat Duration 35.0, Exclusion List Size 500, Exclusion Duration 40.0, Exclusion Mass Width Relative to Mass, Exclusion Mass Width 10ppm). […]

[1] = RACGAP1 peptide 572 - vsllgpvTTpehqllkTpSSSSlsqr - 597
[2] = RB1 peptide 788 - spykfpsSplripggniYisplkSpykiseglptptk - 824
[3] = RB1 peptide 792 - fpSSplripggniyiSplkSpYkiseglptpTk - 824
[4] = SEMA6A peptide 745 - adqhhldltalpTpestptlqqk - 767
[5] = SH3RF1 peptide 682 - ivtvlpglpTSpdsassacgnssatkpdkdsk - 713
[6] = SPEN peptide 188 - SrSpnrfdahdpr - 200
[7] = STAT1 peptide 716 - lqttdnllpmsSpeefdevsr - 736
[8] = TACC2 peptide 8/2304 - mkkTpekldntpaSpprSpaepndipiak - 36/2332
[9] = TANC2 peptide 1556 - sqSgspvryqqetsvsqlpgrpksplsSk - 1583
[10] = TASOR peptide 969 - qrSSdYqfpSSpftdtlk - 986
[11] = TASOR peptide 971- ssdyqfpSspftdtlk - 986
[12] = TASOR peptide 971 - ssdyqfpsSpftdtlk - 986
[13] = TBC1D10B peptide 686 - asagpapgpvvtaeglhpslpSptgnsTplgssk - 718
[14] = TBC1D23 peptide 505- visfientsTpvdr - 518
[15] = TFEB peptide 406 - edegppgypeplapghgSpfpslsk - 430
[16] = TGS1 peptide 290 - vdlvsfpsSpimvdndssgtsdkdhseildgisnik - 325
[17] = TLE3 peptide 282 - daptspasvassssTpssk - 300
[18] = TMPO peptide 151 - eqgteSrssTplptisssaentr - 173
[19] = TNRC18 peptide 1230 - vdSpgrTepcTaaldlgvqlTpeTlveak -1258
[20] = TUT1 peptide 273 - apespSldsalaSpldpqa - 293l
[21] = UBR5 peptide 634 - rsTpapkeeekvneeqwslr -653
[22] = WAC peptide 455 - iStpqtntvpikplisTppvsSqpk - 479
[23] = ZC3H13 peptide 1206 - lrSpSndsahr - 1216
[24] = ZMYM4 peptide 1085 - dqgstysgdleseavStphsweeelnhyalk -1115
[25] = ZMYND8 peptide 278/423 - rislsdmprSpmstnssvhtgsdveqdaekk - 307/452
[26] = ZNF687 peptide 123 - mqngfgSpepslpgtphSpappSggtwk - 150

With `Cn1cc(-c2ccc(-c3cncc(Cl)c3N3CCC4(CCNC4=O)CC3)cc2)cn1` [CCT251545] the “CMPD 1/DMSO” value [1] was 0.557, the “MEAN MS SIGNAL CMPD 1 6 H” value [1] was 38518 and the “CMPD 1/DMSO” value [2] was 1.786. The “MEAN MS SIGNAL CMPD 1 6 H” value [2] was 21423, the “CMPD 1/DMSO” value [3] was 1.780 and the “MEAN MS SIGNAL CMPD 1 6 H” value [3] was 52675. For the same compound, the “CMPD 1/DMSO” value [4] was 2.360, the “MEAN MS SIGNAL CMPD 1 6 H” value [4] was 62365 and the “CMPD 1/DMSO” value [5] was 0.610. The “MEAN MS SIGNAL CMPD 1 6 H” value [5] was 121720, the “CMPD 1/DMSO” value [6] was 2.092 and the “MEAN MS SIGNAL CMPD 1 6 H” value [6] was 88908. For the same compound, the “CMPD 1/DMSO” value [7] was 0.357, the “MEAN MS SIGNAL CMPD 1 6 H” value [7] was 223699 and the “CMPD 1/DMSO” value [8] was 0.521. For the same compound, the “MEAN MS SIGNAL CMPD 1 6 H” value [8] was 16068, the “CMPD 1/DMSO” value [9] was 3.615 and the “MEAN MS SIGNAL CMPD 1 6 H” value [9] was 175022. The “CMPD 1/DMSO” value [10] was 0.437, the “MEAN MS SIGNAL CMPD 1 6 H” value [10] was 47745 and the “CMPD 1/DMSO” value [11] was 0.316. The “MEAN MS SIGNAL CMPD 1 6 H” value [11] was 116521, the “CMPD 1/DMSO” value [12] was 0.406 and the “MEAN MS SIGNAL CMPD 1 6 H” value [12] was 489288. The “CMPD 1/DMSO” value [13] was 0.515, the “MEAN MS SIGNAL CMPD 1 6 H” value [13] was 63051 and the “CMPD 1/DMSO” value [14] was 0.544. The “MEAN MS SIGNAL CMPD 1 6 H” value [14] was 230940, the “CMPD 1/DMSO” value [15] was 0.596 and the “MEAN MS SIGNAL CMPD 1 6 H” value [15] was 1352019. The “CMPD 1/DMSO” value [16] was 0.563, the “MEAN MS SIGNAL CMPD 1 6 H” value [16] was 156101 and the “CMPD 1/DMSO” value [17] was 2.152. The “MEAN MS SIGNAL CMPD 1 6 H” value [17] was 35775, the “CMPD 1/DMSO” value [18] was 2.220 and the “MEAN MS SIGNAL CMPD 1 6 H” value [18] was 19216. The “CMPD 1/DMSO” value [19] was 0.311, the “MEAN MS SIGNAL CMPD 1 6 H” value [19] was 69822 and the “CMPD 1/DMSO” value [20] was 2.097. For the same compound, the “MEAN MS SIGNAL CMPD 1 6 H” value [20] was 41046, the “CMPD 1/DMSO” value [21] was 0.456 and the “MEAN MS SIGNAL CMPD 1 6 H” value [21] was 139720. For the same compound, the “CMPD 1/DMSO” value [22] was 0.617, the “MEAN MS SIGNAL CMPD 1 6 H” value [22] was 154581 and the “CMPD 1/DMSO” value [23] was 1.804. The “MEAN MS SIGNAL CMPD 1 6 H” value [23] was 405976, the “CMPD 1/DMSO” value [24] was 0.475 and the “MEAN MS SIGNAL CMPD 1 6 H” value [24] was 46592. The “CMPD 1/DMSO” value [25] was 0.617, the “MEAN MS SIGNAL CMPD 1 6 H” value [25] was 23551 and the “CMPD 1/DMSO” value [26] was 0.458. The “MEAN MS SIGNAL CMPD 1 6 H” value [26] was 22069.
